# Read-outs that look alike come from different tables or passages of the source.
# Columns and labels:
# Assay type in all cases: in vivo
# Apis mellifera [1] = details: 150 g a.s./ha
# Source text: (§1) Der Test wurde gemäß EPPO (European Plant Protection Organisation) Leitlinie 170 wie folgt durchgeführt:
# Die Mortalität von Arbeiterbienen vor dem Bienenstock wird mittels einer Falle für tote Bienen (dead bee trap) bestimmt. Die Falle besteht aus Maschendraht und ist vor dem Bienenstock angebracht. Einzelne, lebende Bienen können die Maschen des Drahts passieren, der Transport toter Bienen durch die Maschen ist nicht möglich, weswegen tote Bienen sich in der Falle ansammeln. Tabelle 1 (siehe auch Figur 1)
# Apis mellifera [2] = test: Tunnel test / spray application / bees: acute mortality of pupae in front of the hive; details: for Zahl toter Puppen: 150 g a.s./ha
# Source text: as §1
# Tabelle 2 (siehe auch Figur 2)
# Apis mellifera [3] = test: Tunnel test / spray application / bees: foraging activity; details: 150 g a.s./ha
# Source text: as §1
# Während einer Minute werden in einem abgegrenzten Bereich von 2 x 1 m^2 die Bienen gezählt, die auf Blüten absitzen. Tabelle 3 (siehe auch Figur 3)
# Apis mellifera [4] = test: Tunnel test / spray application / bees: brood development (share of comb cells); details: 150 g a.s./ha
# Source text: as §1
# Über alle Waben eines Bienenstocks wird der jeweilige Anteil an Zellen bestimmt, der durch Pollen, Nektar, Eier, Larven oder Puppen belegt ist bzw. leer ist. […]
# Apis mellifera [5] = test: Greenhouse test / residue test / bees: mortality after contact with treated tomato leaves; details: 100 g a.s./ha
# Source text: Der Versuch wurde wie folgt durchgeführt:
# Die Tomatenpflanzen wurden im Gewächshaus mit den Testverbindungen bzw. der Referenzsubstanz behandelt (Spritzappliaktion, 3 fache Wiederholung). 1, 3, 6 und 13 Tage nach Behandlung (DAA) wurden Blätter entnommen (je 5 Blattproben pro Behandlung) und in Boxen gegeben. In jede Box wurden 10 Bienen transferiert und die Boxen wurden unter kontrollierten Bedingungen aufbewahrt, wobei die Bienen mit Zuckerlösung gefüttert wurden. 24, 48 und 72 nach Transfer der Bienen wurde deren Mortalität bestimmt. Tabelle 9 (siehe auch Figur 9)
# [6] = leaves taken 1 Tag nach Behandlung, 24 h contact
# [7] = leaves taken 1 Tag nach Behandlung, 48 h contact
# [8] = leaves taken 1 Tag nach Behandlung, 72 h contact
# [9] = leaves taken 3 Tage nach Behandlung, 24 h contact
# [10] = leaves taken 3 Tage nach Behandlung, 48 h contact
# [11] = leaves taken 3 Tage nach Behandlung, 72 h contact
# [12] = leaves taken 6 Tage nach Behandlung, 24 h contact
# [13] = leaves taken 6 Tage nach Behandlung, 48 h contact
# [14] = leaves taken 6 Tage nach Behandlung, 72 h contact
# [15] = leaves taken 13 Tage nach Behandlung, 24 h contact
# [16] = leaves taken 13 Tage nach Behandlung, 48 h contact
# [17] = leaves taken 13 Tage nach Behandlung, 72 h contact
compound,measurement,setting,value
"CCOC(=O)NCCOc1ccc(Oc2ccccc2)cc1 [Fenoxycarb, reference compound]",Zahl toter Arbeiterbienen,Apis mellifera [1]; 0 DAA b (15:15 Uhr),0
same,Zahl toter Arbeiterbienen,Apis mellifera [1]; 0 DAA c (17:15 Uhr),0
same,Zahl toter Arbeiterbienen,Apis mellifera [1]; 1 DAA,"1,3"
same,Zahl toter Arbeiterbienen,Apis mellifera [1]; 2 DAA,"0,7"
same,Zahl toter Arbeiterbienen,Apis mellifera [1]; 3 DAA,0
same,Zahl toter Arbeiterbienen,Apis mellifera [1]; 4 DAA,2
same,Zahl toter Arbeiterbienen,Apis mellifera [1]; 5 DAA,"1,3"
same,Zahl toter Arbeiterbienen,Apis mellifera [1]; 6 DAA,3
same,Zahl toter Arbeiterbienen,Apis mellifera [1]; 11 DAA,1
same,Zahl toter Arbeiterbienen,Apis mellifera [1]; -3 DAA (before application),1
same,Zahl toter Puppen,Apis mellifera [2]; 0 DAA c (17:15 Uhr),0
same,Zahl toter Puppen,Apis mellifera [2]; 1 DAA,0
same,Zahl toter Puppen,Apis mellifera [2]; 2 DAA,0
same,Zahl toter Puppen,Apis mellifera [2]; 5 DAA,0
same,Zahl toter Puppen,Apis mellifera [2]; 6 DAA,0
same,Zahl toter Puppen,Apis mellifera [2]; 11 DAA,9
same,Zahl toter Puppen,Apis mellifera [2]; 14 DAA,"16,7"
same,Zahl toter Puppen,Apis mellifera [2]; 18 DAA,"26,7"
same,Zahl toter Puppen,Apis mellifera [2]; 21 DAA,0
same,Zahl toter Puppen,Apis mellifera [2]; 25 DAA,1
same,Zahl toter Puppen,Apis mellifera [2]; -3 DAA (before application),0
same,Mortalität von Puppen vor dem Bienenstock,"Apis mellifera [2]; result in words, tunnel test, spray, I-5 75 und 150 g a.s./ha, Fenoxycarb 150 g a.s./ha",11-18 Tage nach Applikation eine Mortalität von Puppen
same,"Aktivität der Nahrungssuche, Zahl der Bienen / min / m^2",Apis mellifera [3]; 0 DAA a (09:30 Uhr),"26,2 Bienen / min / m^2"
same,"Aktivität der Nahrungssuche, Zahl der Bienen / min / m^2",Apis mellifera [3]; 0 DAA c (14:15 Uhr),"38,7 Bienen / min / m^2"
same,"Aktivität der Nahrungssuche, Zahl der Bienen / min / m^2",Apis mellifera [3]; 0 DAA e (17:15 Uhr),46 Bienen / min / m^2
same,"Aktivität der Nahrungssuche, Zahl der Bienen / min / m^2",Apis mellifera [3]; 1 DAA b (15:30 Uhr),19 Bienen / min / m^2
same,"Aktivität der Nahrungssuche, Zahl der Bienen / min / m^2",Apis mellifera [3]; 2 DAA,"32,3 Bienen / min / m^2"
same,"Aktivität der Nahrungssuche, Zahl der Bienen / min / m^2",Apis mellifera [3]; 3 DAA,"38,7 Bienen / min / m^2"
same,"Aktivität der Nahrungssuche, Zahl der Bienen / min / m^2",Apis mellifera [3]; 6 DAA,"38,8 Bienen / min / m^2"
same,"Aktivität der Nahrungssuche, Zahl der Bienen / min / m^2",Apis mellifera [3]; -1 DAA (before application),"27,3 Bienen / min / m^2"
same,"Aktivität der Nahrungssuche, Zahl der Bienen / min / m^2",Apis mellifera [3]; -2 DAA (before application),"33,7 Bienen / min / m^2"
same,"Aktivität der Nahrungssuche, Zahl der Bienen / min / m^2",Apis mellifera [3]; -3 DAA (before application),25 Bienen / min / m^2
same,Anteil an Zellen: Eier,Apis mellifera [4]; 1 Tag vor Applikation,"12,5%"
same,Anteil an Zellen: Larven,Apis mellifera [4]; 1 Tag vor Applikation,"14,2%"
same,Anteil an Zellen: Leer,Apis mellifera [4]; 1 Tag vor Applikation,"25,8%"
same,Anteil an Zellen: Nektar,Apis mellifera [4]; 1 Tag vor Applikation,"13,3%"
same,Anteil an Zellen: Pollen,Apis mellifera [4]; 1 Tag vor Applikation,"2,2%"
same,Anteil an Zellen: Puppen,Apis mellifera [4]; 1 Tag vor Applikation,"31,9%"
same,Anteil an Zellen: Eier,Apis mellifera [4]; 6 Tage nach Applikation,"12,2%"
same,Anteil an Zellen: Larven,Apis mellifera [4]; 6 Tage nach Applikation,"0,3%"
same,Anteil an Zellen: Leer,Apis mellifera [4]; 6 Tage nach Applikation,"29,7%"
same,Anteil an Zellen: Nektar,Apis mellifera [4]; 6 Tage nach Applikation,"20,8%"
same,Anteil an Zellen: Pollen,Apis mellifera [4]; 6 Tage nach Applikation,"6,7%"
same,Anteil an Zellen: Puppen,Apis mellifera [4]; 6 Tage nach Applikation,"30,3%"
same,Anteil an Zellen: Eier,Apis mellifera [4]; 14 Tage nach Applikation,"18,3%"
same,Anteil an Zellen: Larven,Apis mellifera [4]; 14 Tage nach Applikation,"10,6%"
same,Anteil an Zellen: Leer,Apis mellifera [4]; 14 Tage nach Applikation,"52,2%"
same,Anteil an Zellen: Nektar,Apis mellifera [4]; 14 Tage nach Applikation,"9,2%"
same,Anteil an Zellen: Pollen,Apis mellifera [4]; 14 Tage nach Applikation,"5,3%"
same,Anteil an Zellen: Puppen,Apis mellifera [4]; 14 Tage nach Applikation,"4,4%"
same,Anteil an Zellen: Eier,Apis mellifera [4]; 27 Tage nach Applikation,"18,6%"
same,Anteil an Zellen: Larven,Apis mellifera [4]; 27 Tage nach Applikation,"7,2%"
same,Anteil an Zellen: Leer,Apis mellifera [4]; 27 Tage nach Applikation,"23,1%"
same,Anteil an Zellen: Nektar,Apis mellifera [4]; 27 Tage nach Applikation,"21,9%"
same,Anteil an Zellen: Pollen,Apis mellifera [4]; 27 Tage nach Applikation,"4,7%"
same,Anteil an Zellen: Puppen,Apis mellifera [4]; 27 Tage nach Applikation,"24,4%"
same,Zahl der Larven,"Apis mellifera [4]; result in words, 6 Tage nach Applikation",starke Abnahme
same,Zahl der Puppen,"Apis mellifera [4]; result in words, 14 Tage nach Applikation",starke Abnahme
"O=C1C=C(N(Cc2ccc(Cl)nc2)C2CC2)CO1 [I-9, 4-{[(6-Chlorpyrid-3-yl)methyl](cyclopropyl)amino}furan-2(5H)-on]",Mortalität,Apis mellifera [5]; [6],6%
same,Mortalität,Apis mellifera [5]; [7],9%
same,Mortalität,Apis mellifera [5]; [8],13%
same,Mortalität,Apis mellifera [5]; [9],2%
same,Mortalität,Apis mellifera [5]; [10],3%
same,Mortalität,Apis mellifera [5]; [11],4%
same,Mortalität,Apis mellifera [5]; [12],1%
same,Mortalität,Apis mellifera [5]; [13],2%
same,Mortalität,Apis mellifera [5]; [14],5%
same,Mortalität,Apis mellifera [5]; [15],"8,7%"
same,Mortalität,Apis mellifera [5]; [16],11%
same,Mortalität,Apis mellifera [5]; [17],12%
"CN(Cc1ccc(Cl)nc1)C1=CC(=O)OC1 [I-10, 4-{[(6-Chlorpyrid-3-yl)methyl](methyl)amino}furan-2(5H)-on]",Mortalität,Apis mellifera [5]; [6],5%
same,Mortalität,Apis mellifera [5]; [7],5%
same,Mortalität,Apis mellifera [5]; [8],6%
same,Mortalität,Apis mellifera [5]; [9],3%
same,Mortalität,Apis mellifera [5]; [10],7%
same,Mortalität,Apis mellifera [5]; [11],8%
same,Mortalität,Apis mellifera [5]; [12],3%
same,Mortalität,Apis mellifera [5]; [13],4%
same,Mortalität,Apis mellifera [5]; [14],7%
same,Mortalität,Apis mellifera [5]; [15],"6,7%"
same,Mortalität,Apis mellifera [5]; [16],"6,7%"
same,Mortalität,Apis mellifera [5]; [17],"6,7%"

# Reference: patent publication EP2193713A1, “Method for fighting animal pests without damaging pollinating insects” (Bayer CropScience AG, priority 2008, dated 2010)
